Results taken from US9453062B2, “Glucose dependent insulinotropic polypeptide analogs, pharmaceutical compositions and use thereof” (Beijing Hanmi Pharmaceutical Co., Ltd., priority 2011, dated 2016).
Where two headings read alike, the source gives them in different places. Where a SMILES comes first, the peptide text is derived from it. Where no end group is shown, it is not given here. [ ]: non-standard residue; d: D form. Phe(4-NO2) = N[C@@H](Cc1ccc([N+](=O)[O-])cc1)C(=O)O; Met(O) = CS(=O)CC[C@H](N)C(=O)O; Phg = N[C@H](C(=O)O)c1ccccc1; Nle = CCCC[C@H](N)C(=O)O; Aib = CC(C)(N)C(=O)O

What was measured:
hGIPR = target: T1, hGIPR (Homo sapiens, UniProt P48546); experiment: hGIPR-mediated cAMP induction assay in CHO cell line; assay type: cell-based; details: for GIP Receptor Relative Potency: against native GIP
T1 construct: expressed in transfected cells; host or cells: CHO
T1 sequence (P48546 22-466): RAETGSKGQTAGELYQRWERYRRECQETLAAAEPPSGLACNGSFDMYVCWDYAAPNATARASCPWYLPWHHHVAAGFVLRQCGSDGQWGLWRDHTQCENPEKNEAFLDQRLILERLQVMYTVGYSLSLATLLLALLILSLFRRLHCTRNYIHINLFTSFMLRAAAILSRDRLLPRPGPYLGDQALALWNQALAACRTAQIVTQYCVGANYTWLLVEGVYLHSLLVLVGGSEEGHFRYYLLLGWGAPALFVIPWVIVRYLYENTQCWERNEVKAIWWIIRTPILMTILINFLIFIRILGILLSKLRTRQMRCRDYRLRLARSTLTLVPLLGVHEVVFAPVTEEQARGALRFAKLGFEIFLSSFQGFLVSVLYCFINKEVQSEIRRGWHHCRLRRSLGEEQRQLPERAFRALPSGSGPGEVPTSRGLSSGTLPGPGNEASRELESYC

hGLP-1R = target: T2, hGLP-1R (Homo sapiens, UniProt P43220); experiment: hGLP-1R-mediated cAMP induction assay in CHO cell line; assay type: cell-based;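 note: CHO cells expressing human GLP-1R, treated 30 min at 37 °C, intracellular cAMP measured by competitive fluorescent immunoassay and converted via a cAMP standard curve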
T2 construct: expressed in transfected cells; host or cells: CHO
T2 sequence (P43220 24-463): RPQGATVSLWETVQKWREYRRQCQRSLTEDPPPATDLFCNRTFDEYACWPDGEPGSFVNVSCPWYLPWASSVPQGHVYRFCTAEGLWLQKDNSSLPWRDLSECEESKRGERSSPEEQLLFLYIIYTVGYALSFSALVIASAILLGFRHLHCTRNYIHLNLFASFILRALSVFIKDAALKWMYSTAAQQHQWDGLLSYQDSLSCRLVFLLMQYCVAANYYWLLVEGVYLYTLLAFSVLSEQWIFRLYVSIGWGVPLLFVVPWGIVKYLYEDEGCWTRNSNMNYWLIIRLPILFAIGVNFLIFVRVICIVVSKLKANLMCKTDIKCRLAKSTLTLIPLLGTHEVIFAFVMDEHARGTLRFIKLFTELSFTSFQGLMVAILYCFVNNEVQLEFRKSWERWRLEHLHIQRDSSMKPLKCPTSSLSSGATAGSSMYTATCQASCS
From the text: The cAMP in the sample or standard competes with horseradish peroxidase (HRP)-labeled cAMP conjugate for binding sites on the anti-cAMP antibodies. In the absence of cAMP, most of the HRP-cAMP conjugate is bound to the antibody. Increasing concentrations of cAMP competitively decrease the amount of bound conjugate, thus decreasing measured HRP activity.
Assay kit: CatchPoint™ Cyclic-AMP Fluorescent Assay Kit (Molecular Devices, Product # R8088)
Cell lines: CHO hGLP1R, CHO hGIPR
Cell seeding: CHO hGLP1R or CHO hGIPR cells: 10,000 cells/well/100 uL at 37° C. 5% CO2 overnight.
Gently aspirate off media and wash the cells with KRBG Buffer, 100 uL/well.
Incubate the plate for 10 min at room temperature. Then add the KRBG buffer with 3× final concentration of the tested samples (5-foled series diluted from 5,000 nM), 50 uL/well. Incubate the plate at 37° C. 5% CO2 for 30 min.
Add 50 uL of Lysis buffer to each well and put the plate on a shaker for 10 min.
Place 40 uL of samples and analyze in appropriate wells. And test the cAMP concentration in each sample by following the manufacture's instruction.
Detect the fluorescence signal at Ex: 490 nm and Em: 530 nm. Transfer the FI signal to cAMP concentration by the cAMP standard curve. The Dose-response curve and EC50 were obtained by logistic fitting of Origin 8.

| Compound | GIP Receptor Relative Potency (hGIPR; Table 3) | EC50 (hGLP-1R) [nM] | other results |
| --- | --- | --- | --- |
| CC[C@H](C)[C@H](NC(=O)[C@H](CO)NC(=O)[C@H](Cc1ccc(O)cc1)NC(=O)[C@H](CC(=O)O)NC(=O)[C@H](CO)NC(=O)[C@@H](NC(=O)[C@H](Cc1ccccc1)NC(=O)[C@@H](NC(=O)CNC(=O)[C@H](CCC(=O)O)NC(=O)C(C)(C)NC(=O)[C@@H](N)Cc1ccc(O)cc1)[C@@H](C)O)[C@@H](C)O)C(=O)N[C@@H](Cc1ccc(O)cc1)C(=O)N[C@@H](CCSC)C(=O)N[C@@H](CCC(=O)O)C(=O)N[C@@H](CCCCN)C(=O)N[C@H](C(=O)N[C@@H](Cc1c[nH]cn1)C(=O)N[C@@H](CCC(N)=O)C(=O)N[C@@H](CCC(N)=O)C(=O)N[C@@H](CC(=O)O)C(=O)N[C@@H](Cc1ccccc1)C(=O)N[C@H](C(=O)N[C@@H](CC(N)=O)C(=O)N[C@@H](Cc1c[nH]c2ccccc12)C(=O)N[C@@H](CC(C)C)C(=O)N[C@@H](CC(C)C)C(=O)N[C@@H](C)C(=O)N[C@@H](CCC(N)=O)C(N)=O)C(C)C)[C@@H](C)CC [Compound 003] (H-Y[Aib]EGTFTSDYSIYMEKIHQQDFVNWLLAQ-NH2; N-terminus assumed) | 77.7 |  |  |
| CC[C@H](C)[C@H](NC(=O)[C@H](CO)NC(=O)[C@H](Cc1ccc(O)cc1)NC(=O)[C@H](CC(=O)O)NC(=O)[C@H](CO)NC(=O)[C@@H](NC(=O)[C@H](Cc1ccccc1)NC(=O)[C@@H](NC(=O)CNC(=O)[C@H](CCC(=O)O)NC(=O)C(C)(C)NC(=O)[C@@H](N)Cc1ccc(O)cc1)[C@@H](C)O)[C@@H](C)O)C(=O)N[C@@H](Cc1ccc([N+](=O)[O-])cc1)C(=O)N[C@@H](CC[S+](C)[O-])C(=O)N[C@@H](CCC(=O)O)C(=O)N[C@@H](CCCCN)C(=O)N[C@H](C(=O)N[C@@H](Cc1c[nH]cn1)C(=O)N[C@@H](CCC(N)=O)C(=O)N[C@@H](CCC(N)=O)C(=O)N[C@@H](CC(=O)O)C(=O)N[C@@H](Cc1ccccc1)C(=O)N[C@H](C(=O)N[C@@H](CC(N)=O)C(=O)N[C@@H](Cc1c[nH]c2ccccc12)C(=O)N[C@@H](CC(C)C)C(=O)N[C@@H](CC(C)C)C(=O)N[C@@H](C)C(=O)N[C@@H](CCC(N)=O)C(N)=O)C(C)C)[C@@H](C)CC (stereo partly shown) [Compound 005] (H-Y[Aib]EGTFTSDYSI[Phe(4-NO2)][Met(O)]EKIHQQDFVNWLLAQ-NH2) |  | > 2000 |  |
| CCCC[C@H](NC(=O)[C@@H](NC(=O)[C@@H](NC(=O)[C@H](CO)NC(=O)[C@H](Cc1ccc(O)cc1)NC(=O)[C@H](CC(=O)O)NC(=O)[C@H](CO)NC(=O)[C@@H](NC(=O)[C@H](Cc1ccccc1)NC(=O)[C@@H](NC(=O)CNC(=O)[C@H](CCC(=O)O)NC(=O)C(C)(C)NC(=O)[C@@H](N)Cc1ccc(O)cc1)[C@@H](C)O)[C@@H](C)O)[C@@H](C)CC)c1ccccc1)C(=O)N[C@@H](CCC(=O)O)C(=O)N[C@@H](CCCCN)C(=O)N[C@H](C(=O)N[C@@H](Cc1c[nH]cn1)C(=O)N[C@@H](CCC(N)=O)C(=O)N[C@@H](CCC(N)=O)C(=O)N[C@@H](CC(=O)O)C(=O)N[C@@H](Cc1ccccc1)C(=O)N[C@H](C(=O)N[C@@H](CC(N)=O)C(=O)N[C@@H](Cc1c[nH]c2ccccc12)C(=O)N[C@@H](CC(C)C)C(=O)N[C@@H](CC(C)C)C(=O)N[C@@H](C)C(=O)N[C@@H](CCC(N)=O)C(N)=O)C(C)C)[C@@H](C)CC [Compound 009] (H-Y[Aib]EGTFTSDYSI[Phg][Nle]EKIHQQDFVNWLLAQ-NH2; N-terminus assumed) |  | > 2000 |  |
| CCCC[C@H](NC(=O)[C@H](C)NC(=O)[C@@H](NC(=O)[C@H](CO)NC(=O)[C@H](Cc1ccc(O)cc1)NC(=O)[C@H](CC(=O)O)NC(=O)[C@H](CO)NC(=O)[C@@H](NC(=O)[C@H](Cc1ccccc1)NC(=O)[C@@H](NC(=O)CNC(=O)[C@H](CCC(=O)O)NC(=O)C(C)(C)NC(=O)[C@@H](N)Cc1ccc(O)cc1)[C@@H](C)O)[C@@H](C)CC)[C@@H](C)CC)C(=O)N[C@@H](CCC(=O)O)C(=O)N[C@@H](CCCCN)C(=O)N[C@H](C(=O)N[C@@H](Cc1c[nH]cn1)C(=O)N[C@@H](CCC(N)=O)C(=O)N[C@@H](CCC(N)=O)C(=O)N[C@@H](CC(=O)O)C(=O)N[C@@H](Cc1ccccc1)C(=O)N[C@H](C(=O)N[C@@H](CC(N)=O)C(=O)N[C@@H](Cc1c[nH]c2ccccc12)C(=O)N[C@@H](CC(C)C)C(=O)N[C@@H](CC(C)C)C(=O)N[C@@H](C)C(=O)N[C@@H](CCC(N)=O)C(N)=O)C(C)C)[C@@H](C)CC [Compound 010] (H-Y[Aib]EGTFISDYSIA[Nle]EKIHQQDFVNWLLAQ-NH2; N-terminus assumed) |  | > 2000 |  |
| CCCC[C@H](NC(=O)[C@H](Cc1ccc(O)cc1)NC(=O)[C@@H](NC(=O)[C@H](CO)NC(=O)[C@H](Cc1ccc(O)cc1)NC(=O)[C@H](CC(=O)O)NC(=O)[C@H](CO)NC(=O)[C@@H](NC(=O)[C@H](Cc1ccccc1)NC(=O)[C@@H](NC(=O)CNC(=O)[C@H](CCC(=O)O)NC(=O)C(C)(C)NC(=O)[C@@H](N)Cc1ccc(O)cc1)[C@@H](C)O)[C@@H](C)O)[C@@H](C)CC)C(=O)N[C@@H](CCC(=O)O)C(=O)N[C@@H](CCCCN)C(=O)N[C@@H](CCC(=O)O)C(=O)N[C@@H](C)C(=O)N[C@@H](CCC(N)=O)C(=O)N[C@@H](CCC(N)=O)C(=O)N[C@@H](CC(=O)O)C(=O)N[C@@H](Cc1ccccc1)C(=O)N[C@H](C(=O)N[C@@H](CC(N)=O)C(=O)N[C@@H](Cc1c[nH]c2ccccc12)C(=O)N[C@@H](CC(C)C)C(=O)N[C@@H](CC(C)C)C(=O)N[C@@H](C)C(=O)N[C@@H](CCC(N)=O)C(N)=O)C(C)C [Compound 020] (H-Y[Aib]EGTFTSDYSIY[Nle]EKEAQQDFVNWLLAQ-NH2; N-terminus assumed) | 51.8 |  | EC50 (hGIPR): 0.27 nM |
| CCCC[C@H](NC(=O)[C@H](Cc1ccc(O)cc1)NC(=O)[C@@H](NC(=O)[C@H](CO)NC(=O)[C@H](Cc1ccc(O)cc1)NC(=O)[C@H](CC(=O)O)NC(=O)[C@H](CO)NC(=O)[C@@H](NC(=O)[C@H](Cc1ccccc1)NC(=O)[C@@H](NC(=O)CNC(=O)[C@H](CCC(=O)O)NC(=O)C(C)(C)NC(=O)[C@@H](N)Cc1ccc(O)cc1)[C@@H](C)O)[C@@H](C)O)[C@@H](C)CC)C(=O)N[C@@H](CCC(=O)O)C(=O)N[C@@H](CCCCN)C(=O)N[C@H](C(=O)N[C@@H](Cc1c[nH]cn1)C(=O)N[C@@H](CCC(N)=O)C(=O)N[C@@H](CCC(N)=O)C(=O)N[C@@H](CC(=O)O)C(=O)N[C@@H](Cc1ccccc1)C(=O)N[C@H](C(=O)N[C@@H](CC(N)=O)C(=O)N[C@@H](Cc1c[nH]c2ccccc12)C(=O)N[C@@H](CC(C)C)C(=O)N[C@H](C(=O)N[C@@H](CCCNC(=N)N)C(=O)N[C@@H](CCC(N)=O)C(N)=O)C(C)C)C(C)C)[C@@H](C)CC [Compound 021] (H-Y[Aib]EGTFTSDYSIY[Nle]EKIHQQDFVNWLVRQ-NH2; N-terminus assumed) | 21.7 |  |  |
| CC[C@H](C)[C@H](NC(=O)[C@H](Cc1ccccc1)NC(=O)[C@H](CCC(=O)O)NC(=O)[C@H](CCC(=O)O)NC(=O)[C@@H](NC(=O)[C@H](C)NC(=O)[C@H](CCC(=O)O)NC(=O)[C@H](CCCCN)NC(=O)[C@H](CCC(=O)O)NC(=O)[C@H](CCSC)NC(=O)[C@H](Cc1ccc(O)cc1)NC(=O)[C@@H](NC(=O)[C@H](CO)NC(=O)[C@H](Cc1ccc(O)cc1)NC(=O)[C@H](CC(=O)O)NC(=O)[C@H](CO)NC(=O)[C@@H](NC(=O)[C@H](Cc1ccccc1)NC(=O)[C@@H](NC(=O)CNC(=O)[C@H](CCC(=O)O)NC(=O)C(C)(C)NC(=O)[C@@H](N)Cc1ccc(O)cc1)[C@@H](C)O)[C@@H](C)O)[C@@H](C)CC)C(C)C)C(=O)N[C@@H](C)C(=O)N[C@@H](Cc1c[nH]c2ccccc12)C(=O)N[C@@H](CC(C)C)C(=O)N[C@H](C(=O)N[C@@H](CCCCN)C(=O)NCC(N)=O)C(C)C [Compound 053-1] (H-Y[Aib]EGTFTSDYSIYMEKEAVEEFIAWLVKG-NH2; N-terminus assumed) | 34 |  | EC50 (hGIPR; Table 3, CHO hGIPR cells): 0.5 nM |
| CC[C@H](C)[C@H](NC(=O)[C@H](Cc1ccccc1)NC(=O)[C@H](CCC(=O)O)NC(=O)[C@H](CCCCN)NC(=O)[C@@H](NC(=O)[C@H](C)NC(=O)[C@H](CCC(=O)O)NC(=O)[C@H](CCCCN)NC(=O)[C@H](CCC(=O)O)NC(=O)[C@H](CCSC)NC(=O)[C@H](Cc1ccc(O)cc1)NC(=O)[C@@H](NC(=O)[C@H](CO)NC(=O)[C@H](Cc1ccc(O)cc1)NC(=O)[C@H](CC(=O)O)NC(=O)[C@H](CO)NC(=O)[C@@H](NC(=O)[C@H](Cc1ccccc1)NC(=O)[C@@H](NC(=O)CNC(=O)[C@H](CCC(=O)O)NC(=O)C(C)(C)NC(=O)[C@@H](N)Cc1ccc(O)cc1)[C@@H](C)O)[C@@H](C)O)[C@@H](C)CC)C(C)C)C(=O)N[C@@H](C)C(=O)N[C@@H](Cc1c[nH]c2ccccc12)C(=O)N[C@@H](CC(C)C)C(=O)N[C@H](C(=O)N[C@@H](CCCCN)C(=O)NCC(N)=O)C(C)C [Compound 057] (H-Y[Aib]EGTFTSDYSIYMEKEAVKEFIAWLVKG-NH2; N-terminus assumed) | 36.8 |  | EC50 (hGIPR; Table 3, CHO hGIPR cells): 0.57 nM |
| Tyr-Aib-Glu-Gly-Thr-Phe-Thr-Ser-Asp-Tyr-Ser-Ile-Tyr-Met-Glu-Lys-Ile-His-Gln-Gln-Asp-Phe-Val-Asn-Trp-Leu-Leu-Ala-Gln(NH2) (Y[Aib]EGTFTSDYSIYMEKIHQQDFVNWLLAQ-NH2) [Analog 003] |  |  | GLP-1R activation (GLP-1 activity) against native GLP-1 (hGLP-1R): ~0.2% |
| Tyr-Ala-Glu-Gly-Thr-Phe-Ile-Ser-Asp-Tyr-Ser-Ile-Ala-Met-Asp-Lys-Ile-His-Gln-Gln-Asp-Phe-Val-Asn-Trp-Leu-Leu-Ala-Gln(NH2) (YAEGTFISDYSIAMDKIHQQDFVNWLLAQ-NH2; listed as Homo sapiens) [GIP (1-29), initial scaffold, reference compound] |  |  | GIPR activation in vitro, in words (hGIPR; cAMP induction, liraglutide up to 1 μM): equivalent GIPR activation in vitro to that of the full-length GIP (1-42) |
